In ChEMBL document CHEMBL3861967, “Cyclopeptide Alkaloids from Hymenocardia acida” (J Nat Prod, 2016) one finds IC50 data, which are given here for four compounds.

A value given as a limit tells only on which side of the number the result lay.

One data set deals with Plasmodium falciparum. As to the kind of experiment: Antiplasmodial activity against chloroquine-resistant Plasmodium falciparum K1 infected in human erythrocytes assessed as reduction in parasitemia after 72 hrs by lactate dehydrogenase assay. In kind it is functional, cell-based. The settings on record: K1, 72 h.
The nature of data set [1]: Cytotoxicity against human MRC5 cells assessed as decrease in cell viability after 7 days by MTT assay. In kind it is toxicity, cell-based.

Regarding `CCC(C)[C@@H](C(=O)N[C@H](C(=O)N[C@@H]1C(=O)N[C@@H](Cc2c[nH]c3ccccc23)C(=O)NCC(=O)c2ccc(cc2)OC1(C)C)C(C)C)N(C)C` (stereo partly drawn), in the data set with Plasmodium falciparum, the IC50 (commonly the concentration at which inhibition is half-maximal) stood at 16.4 µM. Moreover, the IC50 at 7 days in data set [1] came to 51.1 µM.

Consider `CCC(C)[C@@H](C(=O)N[C@H](C(=O)N[C@@H]1C(=O)N[C@@H](Cc2c[nH]c3ccccc23)C(=O)NCC(O)c2ccc(cc2)OC1(C)C)C(C)C)N(C)C` (stereo partly drawn), for which the IC50 in the data set on Plasmodium falciparum was 17.5 µM. Moreover, in data set [1], the IC50 at 7 days is over 64 µM.

Take `CCC(C)[C@@H](C(=O)N[C@H](C(=O)N[C@@H]1C(=O)N[C@@H](Cc2c[nH]c3ccccc23)C(=O)NCC(=O)c2ccc(cc2)OC1(C)C)C(C)C)[N+](C)(C)[O-]` (stereo partly drawn): the IC50 with Plasmodium falciparum was found to be 12.2 µM. For the same compound, the IC50 at 7 days in data set [1] was over 64 µM.

With `CCC(C)[C@H](NC(=O)[C@H](C(C)CC)N(C)C)C(=O)N[C@@H]1C(=O)N[C@@H](Cc2c[nH]cn2)C(=O)NCC(=O)c2ccc(cc2)O[C@H]1C(C)C` (stereo partly drawn), the IC50 with Plasmodium falciparum came out at 27.9 µM. Also, the IC50 at 7 days in data set [1] is over 64 µM.
